Test results as given in patent US8778966B2, “Quinolinone derivatives as PARP and tank inhibitors” (Janssen Pharmaceutica, NV, priority 2007, dated 2014).
Blank lines part the entries; values can stand above or below the compound they belong to.

How the values were obtained:
Human PARP-1 enzyme = biological target: T1, Human PARP-1 enzyme (Homo sapiens, UniProt P09874); experiment: In vitro Scintillation Proximity Assay (SPA) for PARP-1 inhibitory activity; assay type: biochemical; conditions: read-out: in vitro SPA assay PARP-1 pIC50 (converted)
T1 construct: purchased Trevigen
T1 sequence (P09874 whole entry): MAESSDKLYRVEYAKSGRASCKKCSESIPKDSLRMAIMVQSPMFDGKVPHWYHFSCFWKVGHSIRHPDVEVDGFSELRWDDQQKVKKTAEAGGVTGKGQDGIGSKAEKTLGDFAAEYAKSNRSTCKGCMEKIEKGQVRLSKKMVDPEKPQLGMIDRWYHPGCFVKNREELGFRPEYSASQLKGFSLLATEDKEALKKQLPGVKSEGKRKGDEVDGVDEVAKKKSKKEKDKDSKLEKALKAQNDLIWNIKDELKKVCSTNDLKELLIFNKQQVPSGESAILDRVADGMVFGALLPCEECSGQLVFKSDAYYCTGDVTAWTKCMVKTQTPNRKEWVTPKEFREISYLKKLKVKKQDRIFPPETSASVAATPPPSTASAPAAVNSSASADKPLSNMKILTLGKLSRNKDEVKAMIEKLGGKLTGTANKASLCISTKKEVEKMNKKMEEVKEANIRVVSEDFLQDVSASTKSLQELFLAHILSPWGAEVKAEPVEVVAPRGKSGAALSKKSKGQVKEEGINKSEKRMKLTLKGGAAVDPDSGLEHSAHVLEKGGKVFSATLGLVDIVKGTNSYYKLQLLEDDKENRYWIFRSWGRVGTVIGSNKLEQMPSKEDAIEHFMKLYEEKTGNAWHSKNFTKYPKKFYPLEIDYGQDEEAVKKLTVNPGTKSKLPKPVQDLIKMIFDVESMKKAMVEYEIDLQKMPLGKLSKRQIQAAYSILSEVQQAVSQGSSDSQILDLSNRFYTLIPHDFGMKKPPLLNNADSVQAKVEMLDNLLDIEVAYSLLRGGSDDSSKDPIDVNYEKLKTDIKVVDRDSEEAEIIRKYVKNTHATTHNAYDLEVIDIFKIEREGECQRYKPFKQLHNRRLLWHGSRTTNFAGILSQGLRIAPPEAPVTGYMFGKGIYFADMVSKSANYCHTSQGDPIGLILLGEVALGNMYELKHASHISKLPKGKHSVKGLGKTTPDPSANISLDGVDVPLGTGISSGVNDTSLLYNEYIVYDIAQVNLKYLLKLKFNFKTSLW
Procedure, shortened: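 SPA assay: nicked-DNA-activated PARP-1 (0.1–0.2 μg/ml) ADP-ribosylates biotinylated histones (2 μg/ml) using [3H]-NAD+, 20 min at RT in Tris pH 8/DTT/MgCl2, stopped with 2 mM NAD+. Blank-subtracted cpm expressed as % control; IC50 by linear interpolation, reported as pIC50 (10−5 to 3×10−9 M tested).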

HCT116 cells = experiment: Mitotic arrest assay on HCT116 cells (phospho-histone H3 Ser10); assay type: cell-based, human; conditions: lowest active dose; for minimal effective concentration: Homo sapiens, HCT-116, HCT116 cells, read-out: Mitotic arrest HCT116 LAD (converted)
Text: Phosphorylation of histone H3 is tightly correlated with chromosome condensation during both mitosis and meiosis. The assay is a cellular immunosorbent assay wherein the sole antibody is labelled with a detectable conjugate. The phospho-histone H3 (ser10) antibody detects endogenous levels of histone H3 only when phosphorylated at serine 10. […] In parallel with antibody detection, the nuclei of the cells are stained with Hoechst 33342 for cell-counting. Cells are detected and analysed using the InCell Analyzer 1000 from GE Healthcare. Since both the antibody-detection as well as the Hoechst-staining are in the nucleus, the dual area object intensity algorithm is used for analysing the wells.
All compounds tested were dissolved in DMSO and further dilutions were made in culture medium. Final DMSO concentrations never exceeded 0.1% (v/v).
HCT116 cells (supplier: ATCC) (human colon carcinoma cell line) were cultivated in Mc Coy's 5 A medium (supplier: Gibco) supplemented with 10% foetal calf serum (FCS), 2 mM L-glutamine and gentamycin at 37° C. in a humidified incubator with 5% CO2.
HCT116 cells were seeded at 20.000 cells per well in a 96 well plate (black/clear bottom, poly-D-lysine coated, supplier Greiner), cultured overnight to adhere to the bottom of the plate and treated with compound for 6 hours at 37° C. in a humidified incubator. After incubation, the medium was removed and cells were fixed using 100 μl/well formaldehyde (Accustain®, Formaline solution 10% neutral buffered, contains 4% formaldehyde w/v, supplier: Sigma) was added. After incubation for 15 minutes at room temperature, the formaldehyde was removed and cells were incubated with methanol (−20° C.) for 15 minutes at room temperature. After incubation, cells were washed once with phosphate-buffered saline (PBS —CaCl2, —MgCl2, suppier: Gibco)/0.05% Tween 20. The anti-phospho-histone H3 (Ser10) Alexa Fluor 488 antibody (supplier: Cell signalling) is used for detection of the cells inmitosis. The antibody was diluted 1/50 in 5% bovine serum albumins (BSA) and 50 μl/well was used for incubation overnight at room temperature in the dark.
A 1/2000 dilution of Hoechtst 33342 (10 mg/ml, supplier: Invitrogen) was made and 100 μl/well was added for at least 30 minutes before acquiring images. The absorbance at dual wavelengths of 360/480 nm was measured using the InCell Analyzer 1000 from GE Healthcare and the results were then analyzed.
For each experiment, controls (containing no drug) and a blank incubation (containing no cells or drugs) were run in parallel. Analysis was done in triplicate. Low cell count wells were invalidated. The blank value was subtracted from all control and sample values and divided by the standard deviation of the measurements. The compounds were considered active when the obtained value (sigma) was >5. Herein the effects of test compounds are expressed as the lowest dose giving a sigma value of >5 (LAD) (see table F-2).

Structure (SMILES): CCc1cc2ccc(C(C)(C#N)Cc3ccc(F)cc3F)cc2[nH]c1=O (stereo not shown) [Compound 137]
- IC50 (Human PARP-1 enzyme): 1.26 µM
- minimal effective concentration (HCT116 cells): 0.316 µM

Structure (SMILES): CCc1cc2ccc(C(C)(C#N)Cc3c(F)cccc3F)cc2[nH]c1=O (stereo not shown) [Compound 138]
- IC50 (Human PARP-1 enzyme): 1.26 µM
- minimal effective concentration (HCT116 cells): 0.2 µM

Structure (SMILES): CCc1cc2ccc(C(C)(C#N)Cc3ccc(F)cc3Br)cc2[nH]c1=O (stereo not shown) [Compound 139]
- IC50 (Human PARP-1 enzyme): 1.26 µM
- minimal effective concentration (HCT116 cells): 0.1 µM

Structure (SMILES): CCc1cc2ccc(C(C)(C#N)Cc3cccc(Cl)c3)cc2[nH]c1=O (stereo not shown) [Compound 140]
- IC50 (Human PARP-1 enzyme): 0.631 µM
- minimal effective concentration (HCT116 cells): 0.316 µM

Structure (SMILES): CCc1cc2ccc(C(C)(C#N)Cc3cc(Cl)cc(Cl)c3)cc2[nH]c1=O (stereo not shown) [Compound 141]
- IC50 (Human PARP-1 enzyme): 1 µM
- minimal effective concentration (HCT116 cells): 0.1 µM

Structure (SMILES): CCOc1ccccc1OCCC(C)(C#N)c1ccc2cc(CC)c(=O)[nH]c2c1 (stereo not shown) [Compound 142]
- IC50 (Human PARP-1 enzyme): 0.631 µM
- minimal effective concentration (HCT116 cells): 0.316 µM

Structure (SMILES): CCc1cc2ccc(C(C)(C#N)CCOc3cccc(C)c3)cc2[nH]c1=O (stereo not shown) [Compound 143]
- IC50 (Human PARP-1 enzyme): 0.794 µM
- minimal effective concentration (HCT116 cells): 0.316 µM

Structure (SMILES): CCc1cc2ccc(C(C)(C#N)CCOc3ccc(F)cc3)cc2[nH]c1=O (stereo not shown) [Compound 144]
- IC50 (Human PARP-1 enzyme): 0.251 µM
- minimal effective concentration (HCT116 cells): 0.316 µM

Structure (SMILES): CCc1cc2ccc(C(C)(C#N)CCOc3ccccc3)cc2[nH]c1=O (stereo not shown) [Compound 145]
- IC50 (Human PARP-1 enzyme): 0.2 µM
- minimal effective concentration (HCT116 cells): 0.316 µM

Structure (SMILES): CCc1cc2ccc(C(C)(C#N)CCOc3ccc(Cl)cc3)cc2[nH]c1=O (stereo not shown) [Compound 146]
- IC50 (Human PARP-1 enzyme): 0.398 µM
- minimal effective concentration (HCT116 cells): 0.316 µM

Structure (SMILES): CCc1cc2ccc(C(C)(C#N)CCOc3ccc(OC)cc3)cc2[nH]c1=O (stereo not shown) [Compound 147]
- IC50 (Human PARP-1 enzyme): 0.158 µM
- minimal effective concentration (HCT116 cells): 0.316 µM

Structure (SMILES): CCc1cc2ccc(C(C)(C#N)CCOc3ccccc3C)cc2[nH]c1=O (stereo not shown) [Compound 148]
- IC50 (Human PARP-1 enzyme): 0.316 µM
- minimal effective concentration (HCT116 cells): 0.316 µM

Structure (SMILES): CCc1cc2ccc(C(C)(C#N)CCOc3ccc(C)cc3)cc2[nH]c1=O (stereo not shown) [Compound 149]
- IC50 (Human PARP-1 enzyme): 0.398 µM
- minimal effective concentration (HCT116 cells): 0.316 µM

Structure (SMILES): CCc1cc2ccc(C(C)(C#N)CCOc3cccc(Cl)c3)cc2[nH]c1=O (stereo not shown) [Compound 151]
- IC50 (Human PARP-1 enzyme): 0.501 µM
- minimal effective concentration (HCT116 cells): 0.316 µM

Structure (SMILES): CCc1cc2ccc(C(C)(C#N)CCOc3ccccc3Cl)cc2[nH]c1=O (stereo not shown) [Compound 152]
- IC50 (Human PARP-1 enzyme): 0.398 µM
- minimal effective concentration (HCT116 cells): 0.316 µM

Second part, led by results:

- IC50 (Human PARP-1 enzyme): 0.316 µM
Structure (SMILES): CCc1cc2ccc(C(C)(C#N)CCOc3ccccc3Br)cc2[nH]c1=O (stereo not shown) [Compound 153]
- minimal effective concentration (HCT116 cells): 0.316 µM

- IC50 (Human PARP-1 enzyme): 1.26 µM
Structure (SMILES): CCc1cc2ccc(C(C)(C#N)CCOc3ccc(Cl)cc3Cl)cc2[nH]c1=O (stereo not shown) [Compound 154]
- minimal effective concentration (HCT116 cells): 0.316 µM

- IC50 (Human PARP-1 enzyme): 0.501 µM
Structure (SMILES): CCc1cc2ccc(C(C)(C#N)CCOc3ccc(SC)cc3)cc2[nH]c1=O (stereo not shown) [Compound 155]
- minimal effective concentration (HCT116 cells): 1 µM

- IC50 (Human PARP-1 enzyme): 0.316 µM
Structure (SMILES): CCc1cc2ccc(C(C)(C#N)CC3CN(C)c4ccccc4O3)cc2[nH]c1=O (stereo not shown) [Compound 156]
- minimal effective concentration (HCT116 cells): 0.316 µM

- IC50 (Human PARP-1 enzyme): 1.58 µM
Structure (SMILES): CCc1cc2ccc(C(C)(C#N)CCOc3ccc4ccccc4c3)cc2[nH]c1=O (stereo not shown) [Compound 157]
- minimal effective concentration (HCT116 cells): 0.316 µM

- IC50 (Human PARP-1 enzyme): 1.58 µM
Structure (SMILES): CCc1cc2ccc(C(C)(C#N)CCOc3cccc4ccccc34)cc2[nH]c1=O (stereo not shown) [Compound 158]
- minimal effective concentration (HCT116 cells): 0.1 µM

- IC50 (Human PARP-1 enzyme): 0.251 µM
Structure (SMILES): CCc1cc2ccc(C(C)(C#N)CCOc3ccccc3C(C)=O)cc2[nH]c1=O (stereo not shown) [Compound 159]
- minimal effective concentration (HCT116 cells): 3.16 µM

- IC50 (Human PARP-1 enzyme): 0.794 µM
Structure (SMILES): CCc1cc2ccc(C(C)(C#N)CCOc3ccc(Br)cc3)cc2[nH]c1=O (stereo not shown) [Compound 160]
- minimal effective concentration (HCT116 cells): 0.316 µM

- IC50 (Human PARP-1 enzyme): 0.251 µM
Structure (SMILES): CCc1cc2ccc(C(C)(C#N)CCOc3ccc(C#N)cc3)cc2[nH]c1=O (stereo not shown) [Compound 161]
- minimal effective concentration (HCT116 cells): 0.1 µM

- IC50 (Human PARP-1 enzyme): 1 µM
Structure (SMILES): CCc1cc2ccc(C(C)(C#N)CCOc3ccc4oc(C)c(C)c4c3)cc2[nH]c1=O (stereo not shown) [Compound 162]
- minimal effective concentration (HCT116 cells): 3.16 µM

- IC50 (Human PARP-1 enzyme): 1.26 µM
Structure (SMILES): CCc1cc2ccc(C(C)(C#N)CCOc3cccc4c3OCCO4)cc2[nH]c1=O (stereo not shown) [Compound 163]
- minimal effective concentration (HCT116 cells): 1 µM

- IC50 (Human PARP-1 enzyme): 0.251 µM
Structure (SMILES): CCc1cc2ccc(C(C)(C#N)Cc3cccc(CCC#N)c3)cc2[nH]c1=O (stereo not shown) [Compound 165]
- Mitotic arrest HCT116 LAD (HCT116 cells; HCT116 cells, the values are: pLAD (−log M lowest active dose)): 6.5

- IC50 (Human PARP-1 enzyme): 0.501 µM
Structure (SMILES): CCc1cc2ccc(C(C#N)(CCOc3ccccc3)C3CC3)cc2[nH]c1=O (stereo not shown) [Compound 166]
- minimal effective concentration (HCT116 cells): 1 µM

- IC50 (Human PARP-1 enzyme): 1.58 µM
Structure (SMILES): CCc1cc2ccc(C(C)(C#N)CCOc3ccc(C(C)(C)C)cc3)cc2[nH]c1=O (stereo not shown) [Compound 167]
- minimal effective concentration (HCT116 cells): 1 µM
